Values of other authors in patent US20160375041A1, “INHIBITION OF ISOPRENOID BIOSYNTHETIC PATHWAYS TO TREAT AUTOIMMUNE DISORDERS” (priority 2013, published 2016).

Tested on: Vγ9Vδ2 TCR
Conditions: microbial derived HMBPP; fold more potent as stimulatory pyrophosphate

## C/C(=C\COP(=O)(O)OP(=O)(O)O)CO [HMBPP, (E)-4-Hydroxy-3-methyl-but-2-enyl pyrophosphate]
  potency relative to any other known, naturally-occurring pyrophosphate: over 10,000
